The target in one assay is human Gal-3 (hGal-3) (Homo sapiens (Human), UniProt P17931). In words: Competitive binding assay: biotinylated hGal-3 binding to microplate-adsorbed asialofetuin (ASF). As to conditions: Activity on hGal-3; binding of biotinylated hGal-3 to ASF-coated plates; mean values. Summed up: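 Serially diluted compounds competed with biotinylated human Gal-3 for binding to plate-adsorbed asialofetuin over 3 h at 4 °C. Bound Gal-3 was detected with streptavidin-peroxidase (80 ng/mL, 1 h, 4 °C) and ABTS substrate. IC50 values are means of several measurements.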
Sequence of human Gal-3 (hGal-3) (P17931 whole entry): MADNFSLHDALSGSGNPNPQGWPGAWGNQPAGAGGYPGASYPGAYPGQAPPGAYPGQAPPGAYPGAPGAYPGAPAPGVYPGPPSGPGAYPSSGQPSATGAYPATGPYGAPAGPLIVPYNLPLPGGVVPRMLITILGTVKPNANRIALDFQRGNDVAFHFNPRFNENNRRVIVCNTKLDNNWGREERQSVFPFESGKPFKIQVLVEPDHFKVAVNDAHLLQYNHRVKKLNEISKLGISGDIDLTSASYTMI

For the next assay, the target named is human Gal-1 (hGal-1). In words: Competitive binding assay: biotinylated hGal-1 binding to microplate-adsorbed asialofetuin (ASF). The note with it: Activity on hGal-1; binding of biotinylated hGal-1 to ASF-coated plates; mean values. The method in brief:
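Biotinylated hGal-1 (300–1000 ng/mL; optionally a cysteine-free all-serine variant) incubated 3 h at 4 °C with compound on asialofetuin-coated plates, then streptavidin-peroxidase 1 h at 4 °C. ABTS readout at OD 410 nm after 30–45 min; IC50 given as mean of several runs.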

By IC50 is commonly meant the point on the concentration scale where inhibition reaches its midpoint. Higher therefore signals lower potency.

Sequence of human Gal-1 (hGal-1) (P09382 2-135 limits assumed): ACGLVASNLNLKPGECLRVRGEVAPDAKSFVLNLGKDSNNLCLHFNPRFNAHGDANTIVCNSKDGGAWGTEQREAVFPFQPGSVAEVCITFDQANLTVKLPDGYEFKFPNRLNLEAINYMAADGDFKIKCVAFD

As to `CC(=O)O[C@@H]1[C@@H](n2cc(-c3cc(F)c(F)c(F)c3)nn2)[C@@H](O)[C@@H](CO)O[C@H]1C(=O)N(Cc1ccnn1C)[C@H]1CCCC[C@@H]1O` [Example 43, (2R,3R,4S,5R,6R)-5-hydroxy-2-(((1S,2S)-2-hydroxycyclohexyl)((1-methyl-1H-pyrazol-5-yl)methyl)carbamoyl)-6-(hydroxymethyl)-4-(4-(3,4,5-trifluorophenyl)-1H-1,2,3-triazol-1-yl)tetrahydro-2H-pyran-3-yl acetate], the half-inhibitory concentration (IC50) on human Gal-3 (hGal-3) worked out at 0.076 µM; at human Gal-1 (hGal-1) it was 2.67 µM.

Take `CCn1nccc1CN(C(=O)[C@@H]1O[C@H](CO)[C@H](O)[C@H](n2cc(-c3cc(F)c(F)c(F)c3)nn2)[C@H]1OC)[C@H]1CCCC[C@@H]1O` [Example 44, (2R,3R,4S,5R,6R)-N-((1-ethyl-1H-pyrazol-5-yl)methyl)-5-hydroxy-N-((1S,2S)-2-hydroxycyclohexyl)-6-(hydroxymethyl)-3-methoxy-4-(4-(3,4,5-trifluorophenyl)-1H-1,2,3-triazol-1-yl)tetrahydro-2H-pyran-2-carboxamide]: the IC50 on human Gal-3 (hGal-3) was determined as 0.179 µM; at human Gal-1 (hGal-1), 0.974 µM.

Take `CO[C@@H]1[C@@H](n2cc(-c3cc(F)c(F)c(F)c3)nn2)[C@@H](O)[C@@H](CO)O[C@H]1C(=O)N(Cc1ccnn1C(C)C)[C@H]1CCCC[C@@H]1O` [Example 45, (2R,3R,4S,5R,6R)-5-hydroxy-N-((1S,2S)-2-hydroxycyclohexyl)-6-(hydroxymethyl)-N-((1-isopropyl-1H-pyrazol-5-yl)methyl)-3-methoxy-4-(4-(3,4,5-trifluorophenyl)-1H-1,2,3-triazol-1-yl)tetrahydro-2H-pyran-2-carboxamide]: the IC50 was determined as 0.421 µM on human Gal-3 (hGal-3) and 1.43 µM at human Gal-1 (hGal-1).

Regarding `CO[C@@H]1[C@@H](n2cc(-c3cc(F)c(F)c(F)c3)nn2)[C@@H](O)[C@@H](CO)O[C@H]1C(=O)N(Cc1ccnn1CC1CC1)[C@H]1CCCC[C@@H]1O` [Example 46, (2R,3R,4S,5R,6R)-N-((1-(cyclopropylmethyl)-1H-pyrazol-5-yl)methyl)-5-hydroxy-N-((1S,2S)-2-hydroxycyclohexyl)-6-(hydroxymethyl)-3-methoxy-4-(4-(3,4,5-trifluorophenyl)-1H-1,2,3-triazol-1-yl)tetrahydro-2H-pyran-2-carboxamide], the IC50 was determined as 0.16 µM at human Gal-3 (hGal-3) and 0.497 µM on human Gal-1 (hGal-1).

As for `CO[C@@H]1[C@@H](n2cc(-c3cc(F)c(F)c(F)c3)nn2)[C@@H](O)[C@@H](CO)O[C@H]1C(=O)N(Cc1cc(C)nn1C)[C@H]1CCCC[C@@H]1O` [Example 47, (2R,3R,4S,5R,6R)-N-((1,3-dimethyl-1H-pyrazol-5-yl)methyl)-5-hydroxy-N-((1S,2S)-2-hydroxycyclohexyl)-6-(hydroxymethyl)-3-methoxy-4-(4-(3,4,5-trifluorophenyl)-1H-1,2,3-triazol-1-yl)tetrahydro-2H-pyran-2-carboxamide], the IC50 stood at 0.151 µM at human Gal-3 (hGal-3) and 1.04 µM at human Gal-1 (hGal-1).

As for `CO[C@@H]1[C@@H](n2cc(-c3cc(F)c(F)c(F)c3)nn2)[C@@H](O)[C@@H](CO)O[C@H]1C(=O)N(Cc1cc2ccccc2n1C)[C@H]1CCCC[C@@H]1O` [Example 48, (2R,3R,4S,5R,6R)-5-hydroxy-N-((1S,2S)-2-hydroxycyclohexyl)-6-(hydroxymethyl)-3-methoxy-N-((1-methyl-1H-indol-2-yl)methyl)-4-(4-(3,4,5-trifluorophenyl)-1H-1,2,3-triazol-1-yl)tetrahydro-2H-pyran-2-carboxamide], the IC50 at human Gal-3 (hGal-3) stood at 0.344 µM; on human Gal-1 (hGal-1) it was 2.24 µM.

Consider `CC(=O)O[C@@H]1[C@@H](n2cc(-c3cc(F)cc(F)c3)nn2)[C@@H](O)[C@@H](CO)O[C@H]1C(=O)N(Cc1ccnn1C)[C@H]1CCCC[C@@H]1O` [Example 49, (2R,3R,4S,5R,6R)-4-(4-(3,5-difluorophenyl)-1H-1,2,3-triazol-1-yl)-5-hydroxy-2-(((1S,2S)-2-hydroxycyclohexyl)((1-methyl-1H-pyrazol-5-yl)methyl)carbamoyl)-6-(hydroxymethyl)tetrahydro-2H-pyran-3-yl acetate], for which the values for the IC50 on human Gal-3 (hGal-3) and at human Gal-1 (hGal-1) were 0.129 µM and 1.94 µM, respectively.

As for `CC(=O)O[C@@H]1[C@@H](n2cc(-c3cc(F)c(Cl)c(F)c3)nn2)[C@@H](O)[C@@H](CO)O[C@H]1C(=O)N(Cc1ccnn1C)[C@H]1CCCC[C@@H]1O` [Example 50, (2R,3R,4S,5R,6R)-4-(4-(4-chloro-3,5-difluorophenyl)-1H-1,2,3-triazol-1-yl)-5-hydroxy-2-(((1S,2S)-2-hydroxycyclohexyl)((1-methyl-1H-pyrazol-5-yl)methyl)carbamoyl)-6-(hydroxymethyl)tetrahydro-2H-pyran-3-yl acetate], the results for the IC50 on human Gal-3 (hGal-3) and at human Gal-1 (hGal-1) were 0.053 µM and 7.58 µM, respectively.

For the molecule `CC(=O)O[C@@H]1[C@@H](n2cc(-c3cc(F)c(C)c(F)c3)nn2)[C@@H](O)[C@@H](CO)O[C@H]1C(=O)N(Cc1ccnn1C)[C@H]1CCCC[C@@H]1O` [Example 51, (2R,3R,4S,5R,6R)-4-(4-(3,5-difluoro-4-methylphenyl)-1H-1,2,3-triazol-1-yl)-5-hydroxy-2-(((1S,2S)-2-hydroxycyclohexyl)((1-methyl-1H-pyrazol-5-yl)methyl)carbamoyl)-6-(hydroxymethyl)tetrahydro-2H-pyran-3-yl acetate], the IC50 on human Gal-3 (hGal-3) was 0.058 µM; on human Gal-1 (hGal-1), 11.2 µM.

Regarding `CC(=O)O[C@@H]1[C@@H](n2cc(-c3cccc(F)c3)nn2)[C@@H](O)[C@@H](CO)O[C@H]1C(=O)N(Cc1ccnn1C)[C@H]1CCCC[C@@H]1O` [Example 52, (2R,3R,4S,5R,6R)-4-(4-(3-fluorophenyl)-1H-1,2,3-triazol-1-yl)-5-hydroxy-2-(((1S,2S)-2-hydroxycyclohexyl)((1-methyl-1H-pyrazol-5-yl)methyl)carbamoyl)-6-(hydroxymethyl)tetrahydro-2H-pyran-3-yl acetate], the IC50 on human Gal-3 (hGal-3) is 0.191 µM; on human Gal-1 (hGal-1), 1.6 µM.

For the molecule `CO[C@@H]1[C@@H](n2cc(-c3cc(F)c(F)c(F)c3)nn2)[C@@H](O)[C@@H](CO)O[C@H]1C(=O)N(Cc1cccc(Cl)c1)[C@H]1CCCC[C@@H]1O` [Example 53, (2R,3R,4S,5R,6R)-N-(3-chlorobenzyl)-5-hydroxy-N-((1S,2S)-2-hydroxycyclohexyl)-6-(hydroxymethyl)-3-methoxy-4-(4-(3,4,5-trifluorophenyl)-1H-1,2,3-triazol-1-yl)tetrahydro-2H-pyran-2-carboxamide], the IC50 at human Gal-3 (hGal-3) is 0.868 µM; on human Gal-1 (hGal-1), 10.8 µM.

As for `CO[C@@H]1[C@@H](n2cc(-c3cc(F)c(F)c(F)c3)nn2)[C@@H](O)[C@@H](CO)O[C@H]1C(=O)N(Cc1cccc(Cl)c1)[C@H]1CCCC[C@@H]1O` [Example 54], the IC50 on human Gal-3 (hGal-3) came out at 0.02 µM; on human Gal-1 (hGal-1), 2.66 µM.

`CC(=O)O[C@@H]1[C@@H](n2cc(-c3cc(F)c(F)c(F)c3)nn2)[C@@H](O)[C@@H](CO)O[C@H]1C(=O)N(Cc1ccccc1C(F)(F)F)[C@H]1CCCC[C@@H]1O` [Example 55, (2R,3R,4S,5R,6R)-5-hydroxy-2-(((1S,2S)-2-hydroxycyclohexyl)(2-(trifluoromethyl)benzyl)carbamoyl)-6-(hydroxymethyl)-4-(4-(3,4,5-trifluorophenyl)-1H-1,2,3-triazol-1-yl)tetrahydro-2H-pyran-3-yl acetate]: the IC50 turned out to be 0.031 µM on human Gal-3 (hGal-3) and 0.828 µM at human Gal-1 (hGal-1).

With `CO[C@@H]1[C@@H](n2cc(-c3cc(F)c(F)c(F)c3)nn2)[C@@H](O)[C@@H](CO)O[C@H]1C(=O)N(c1ccc(F)c(F)c1)[C@H]1CCCC[C@@H]1O` [Example 56], the values for the IC50 at human Gal-3 (hGal-3) and at human Gal-1 (hGal-1) were 0.042 µM and 0.417 µM, respectively.

On to `CO[C@@H]1[C@@H](n2cc(-c3cc(F)c(F)c(F)c3)nn2)[C@@H](O)[C@@H](CO)O[C@H]1C(=O)N(c1cccc(Cl)c1)[C@H]1CCCC[C@@H]1O` [Example 58], for which the IC50 turned out to be 0.021 µM on human Gal-3 (hGal-3) and 0.729 µM at human Gal-1 (hGal-1).

For `CO[C@@H]1[C@@H](n2cc(-c3cc(F)c(F)c(F)c3)nn2)[C@@H](O)[C@@H](CO)O[C@H]1C(=O)N(c1cc(Cl)cc(Cl)c1)[C@H]1CCCC[C@@H]1O` [Example 60], the values for the IC50 at human Gal-3 (hGal-3) and on human Gal-1 (hGal-1) were 0.016 µM and 0.665 µM, respectively.

For the molecule `CC(=O)O[C@@H]1[C@@H](n2cc(-c3cccc(F)c3)nn2)[C@@H](O)[C@@H](CO)O[C@H]1C(=O)N(Cc1ccccc1C(F)(F)F)[C@H]1CCCC[C@@H]1O` [Example 62, (2R,3R,4S,5R,6R)-4-(4-(3-fluorophenyl)-1H-1,2,3-triazol-1-yl)-5-hydroxy-2-(((1S,2S)-2-hydroxycyclohexyl)(2-(trifluoromethyl)benzyl)carbamoyl)-6-(hydroxymethyl)tetrahydro-2H-pyran-3-yl acetate], the IC50 on human Gal-3 (hGal-3) was 0.141 µM; at human Gal-1 (hGal-1) it was 0.939 µM.

On to `CC(=O)O[C@@H]1[C@@H](n2cc(-c3cc(F)cc(F)c3)nn2)[C@@H](O)[C@@H](CO)O[C@H]1C(=O)N(Cc1ccccc1C(F)(F)F)[C@H]1CCCC[C@@H]1O` [Example 63, (2R,3R,4S,5R,6R)-4-(4-(3,5-difluorophenyl)-1H-1,2,3-triazol-1-yl)-5-hydroxy-2-(((1S,2S)-2-hydroxycyclohexyl)(2-(trifluoromethyl)benzyl)carbamoyl)-6-(hydroxymethyl)tetrahydro-2H-pyran-3-yl acetate], for which the values for the IC50 at human Gal-3 (hGal-3) and on human Gal-1 (hGal-1) were 0.138 µM and 1.02 µM, respectively.

`COc1cnc2ccc(F)c(CN(C(=O)[C@@H]3O[C@H](CO)[C@H](O)[C@H](n4cc(-c5cc(F)c(F)c(F)c5)nn4)[C@H]3OC)[C@H]3CCCC[C@@H]3O)c2n1` [Example 64, (2R,3R,4S,5R,6R)-N-((6-fluoro-3-methoxyquinoxalin-5-yl)methyl)-5-hydroxy-N-((1S,2S)-2-hydroxycyclohexyl)-6-(hydroxymethyl)-3-methoxy-4-(4-(3,4,5-trifluorophenyl)-1H-1,2,3-triazol-1-yl)tetrahydro-2H-pyran-2-carboxamide]: the results for the IC50 at human Gal-3 (hGal-3) and at human Gal-1 (hGal-1) were 0.123 µM and 0.98 µM, respectively.

For the origin of these results see patent US12291519B2, “2-hydroxycycloalkane-1-carbamoyl” (Idorsia Pharmaceuticals Ltd, priority 2019, dated 2025).
